The values that follow come from patent US20120064180A1, “USE OF NO AND NO DONORS FOR TERMINATING DORMANCY IN INVERTEBRATES” (UNIVERSITEIT GENT, priority 2009, published 2012).

Assay [1] concerns Bolshoye Yarovoye Artemia cysts (ARC BY 1706). In words: Post-diapause development of Bolshoye Yarovoye strain encysted Artemia embryos with NO donors. Type of assay: in vivo. On the procedure:
Encysted embryos (cysts) from a parthenogenetic strain of Artemia obtained in winter 2005-2006 in Bolshoye Yarovoye (Altay Region: 52° 51′64″ N-78° 37′32″ E), Russia (Artemia Reference Center (ARC) code number BY 1706), were stored in the dark at 4° C. in dry sealed bags. For the experiment, the cysts were grown at 26-28° C. with constant illumination in 25 ml of sea water under varying experimental conditions as detailed below.
To quantify larval (nauplii) emergence and hatching (FIG. 1) which served as measures of cyst development, 6 samples of 250 μl from each 50 ml tube were mixed individually with 250 μl of sea water and 2 drops of Lugol's solution (Van Stappen, G, 1996) prior to counting nauplii (N) and umbrella (U) with the aid of a dissecting microscope. […] The extent of development was determined as the percent of developed cysts which was calculated as either the number of hatched larvae, or the number of hatched and emerged larvae, obtained from 100 cysts, the latter represented by the sum of hatched nauplii (larvae), emerged larvae and undeveloped cysts containing embryos.
The hatching percentage (H %) was calculated according to: […]
The hatching percentage plus (H^+%) was calculated according to: […]
The percent of developed cysts was calculated as described above.

Assay [2] relates to diapaused pupae of Heliothis virescens. The settings on record: 30 min dip. On the procedure: The larval stages of the tobacco budworm Heliothis virescens (Lepidoptera: Noctuidae) were reared on an artificial diet at standard conditions of 25° C. and long light conditions with 14 h light (Smagghe G et al., 1994). To produce nondiapause pupae, the larvae were kept at these conditions throughout development, whereas for pupal diapause induction, third instar larvae were transferred to 18° C. and short light conditions of 8 h light. The pupal stemma were examined to check the diapause status as described (Philips J R et al., 1966).
The treatment was done in capped plastic Falcon tubes of 10 ml. Controls were dipped in distilled water. After treatment, pupae were put in 9-cm Petri dishes, lined with a filter paper and kept at 25° C. and 14 h light, and development of adults was scored at daily intervals. Per treatment, 20 pupae were tested. Means±SD were compared to controls with a Student's t-test.

For assay [3], the system named is eggs with diapaused embryos of Bombyx mori. Nature of the assay: Termination of embryonic diapause in eggs dipped in NO donor or HCl. The settings on record: SpermineNONOate 1 mM 30 min dip; 20% HCl 5 min 48° C. Format: in vivo. On the procedure: All experiments were carried out on silkmoth strain Bombyx mori J106 (Lepidoptera: Bombycidae). Larvae were maintained on an artificial diet (Yakuruto Co.) under standard conditions of 25° C., 65% relevant humidity and 16 h light ([…] et al., 2003). Egg batches were collected from a continuous insect colony and used for the experiments. […] The latter treatment is the normally used procedure to break diapause in eggs with diapaused embryos for maintenance of the insect colony of B. mori ([…] et al., 2003). In a water-control, eggs with diapaused embryos were dipped in distilled water only, and in a blank-control, eggs with diapaused were not treated. […] The numbers of eggs with diapaused embryos per treatment (n) are given with the results.

As to “N-[4-[1-(3-aminopropyl)-2-hydroxy-2-nitrosohydrazinobutyl]-1,3-propane diamine [Spermine NONOate]”, the “hatching after 24 hours” value in assay [1] (40 and 60 μM, 24 hours, overcome by 48 hr) is recorded as “less dramatic, but obvious”. Further, in assay [1] (Bolshoye Yarovoye cysts, FIG. 2A-F), the “concentration at which NO donor was most effective on cyst development” value is 4.0 µM. Further, the “time to develop into the adult stage” value in assay [2] (1000 μM, control 9.17±0.75 d, p=0.01) is 7.60 ± 0.89 days. For the same substance, in assay [2] (10 and 100 μM), the “time to adult stage versus controls” value is “similar”. Also, in assay [3], the “Number of developed neonates at day 6” value is listed as 28, the “Number of developed neonates at day 7” value is 22, the “Number of developed neonates at day 8” value was 10 and the “Number of developed neonates at day 14” value was 0. In assay [3], the “Number of undeveloped eggs at day 14” value is 10, the “eggs developed into neonate larvae at 6-8 days after treatment (total)” value was 86% and the “percentage of developed neonates at day 14” value is on record as “(0%)”.
